According to PubChem BioAssay (NCI):
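Test compounds were applied to cells in 96-well plates for 48 hours at 5 doses. TGI marks complete inhibition of growth.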

Tests used:
Assay in all cases: NCI-60 cell line screen, 48 h
OVCAR-8 ovarian = system: OVCAR-8 ovarian
NCI-H23 lung = system: NCI-H23 lung
EKVX NSCLC = system: EKVX NSCLC
UO-31 renal = system: UO-31 renal
DU-145 prostate = system: DU-145 prostate
MALME-3M melanoma = system: MALME-3M melanoma
HS 578T breast = system: HS 578T breast
A498 renal = system: A498 renal
SNB-19 CNS = system: SNB-19 CNS
MCF7 breast = system: MCF7 breast
KM12 colon = system: KM12 colon
SW-620 colon = system: SW-620 colon
CAKI-1 renal = system: CAKI-1 renal
NCI-H522 lung = system: NCI-H522 lung
A549 NSCLC = system: A549 NSCLC
MOLT-4 leukemia = system: MOLT-4 leukemia
HL-60(TB) leukemia = system: HL-60(TB) leukemia
SF-295 CNS = system: SF-295 CNS
HCC-2998 colon = system: HCC-2998 colon
M14 melanoma = system: M14 melanoma
NCI/ADR-RES ovarian = system: NCI/ADR-RES ovarian
U251 CNS = system: U251 CNS
RPMI-8226 leukemia = system: RPMI-8226 leukemia
SF-539 CNS = system: SF-539 CNS
K-562 leukemia = system: K-562 leukemia
T-47D breast = system: T-47D breast
SK-MEL-2 melanoma = system: SK-MEL-2 melanoma
HCT-116 colon = system: HCT-116 colon
UACC-62 melanoma = system: UACC-62 melanoma
HT29 colon = system: HT29 colon
NCI-H460 lung = system: NCI-H460 lung
UACC-257 melanoma = system: UACC-257 melanoma
OVCAR-3 ovarian = system: OVCAR-3 ovarian
OVCAR-5 ovarian = system: OVCAR-5 ovarian
SN12C renal = system: SN12C renal
MDA-MB-231 breast = system: MDA-MB-231 breast
SR leukemia = system: SR leukemia
CCRF-CEM leukemia = system: CCRF-CEM leukemia
IGROV1 ovarian = system: IGROV1 ovarian
SK-MEL-5 melanoma = system: SK-MEL-5 melanoma
LOX IMVI melanoma = system: LOX IMVI melanoma
HOP-62 NSCLC = system: HOP-62 NSCLC
786-0 renal = system: 786-0 renal
SK-OV-3 ovarian = system: SK-OV-3 ovarian
COLO 205 colon = system: COLO 205 colon
PC-3 prostate = system: PC-3 prostate
ACHN renal = system: ACHN renal
BT-549 breast = system: BT-549 breast
MDA-MB-435 = system: MDA-MB-435
MDA-N = system: MDA-N
TK-10 renal = system: TK-10 renal
SNB-75 CNS = system: SNB-75 CNS
NCI-H226 lung = system: NCI-H226 lung
HCT-15 colon = system: HCT-15 colon
SK-MEL-28 melanoma = system: SK-MEL-28 melanoma
SF-268 CNS = system: SF-268 CNS

Measured: TGI

COc1ccc2oc(=O)c(CC=C(C)C)c(O)c2c1C
> 100 µM: OVCAR-8 ovarian | NCI-H23 lung | EKVX NSCLC | UO-31 renal | DU-145 prostate | MALME-3M melanoma | HS 578T breast | A498 renal | SNB-19 CNS | MCF7 breast | KM12 colon | SW-620 colon | CAKI-1 renal | NCI-H522 lung | A549 NSCLC | MOLT-4 leukemia | HL-60(TB) leukemia | SF-295 CNS | HCC-2998 colon | M14 melanoma | NCI/ADR-RES ovarian | U251 CNS | RPMI-8226 leukemia | SF-539 CNS | K-562 leukemia | T-47D breast | SK-MEL-2 melanoma | HCT-116 colon | UACC-62 melanoma | HT29 colon | NCI-H460 lung | UACC-257 melanoma | OVCAR-3 ovarian | OVCAR-5 ovarian | SN12C renal | MDA-MB-231 breast | SR leukemia | CCRF-CEM leukemia | IGROV1 ovarian | SK-MEL-5 melanoma | LOX IMVI melanoma | HOP-62 NSCLC | 786-0 renal | SK-OV-3 ovarian | COLO 205 colon | PC-3 prostate | ACHN renal | BT-549 breast | MDA-MB-435 | MDA-N | TK-10 renal | SNB-75 CNS | NCI-H226 lung | HCT-15 colon | SK-MEL-28 melanoma | SF-268 CNS
